Experimental data published in patent publication US20250382631A1, “PROTAC-CID SYSTEMS FOR USE IN MULTIPLEX GENE REGULATION” (William Marsh Rice University, priority 2022, published 2025).
Like-named read-outs stand apart in the source and are kept apart here.

Columns and labels:
[1] = test system: pUAS-1-driven EYFP expression in HEK293T cells transfected with GAL4- and VPR-fused PROTAC target protein / E3 ubiquitin ligase; assay: PROTAC-CID inducible EYFP gene activation, flow cytometry; format: cell-based, human; settings: for Bottom (best-fit value) / Span (best-fit value) / Top (best-fit value): Table 4 nonlinear regression of EYFP activation; for Bottom (best-fit value) / Span (best-fit value) / Top (best-fit value) / Hillslope (best-fit value) / logEC50 (best-fit value) / EC50: FIG. 13A
Procedure: Fluorescence assay using flow cytometry analysis. Cells were treated with 0.05% Trpsin EDTA (Thermo Fisher Scientific no. 25300054) or TrypLE (Thermo Fisher Scientific no. 12605028) after transfection and centrifuged at 3000 g for 5 min. Supernatant was removed and the cell pellet was resuspended with 200 μL phosphate buffered saline (PBS) without calcium and magnesium (Thermo Fisher Scientific no. 10010023). Cells were transferred into 12×75 mm flow tubes (Global Scientific no. 110410). Cells were analyzed by MA900 flow cytometry (SONY). 405 nm laser (FL6 filter) was used for testing the BFP channel. 488 nm (FL1 filter) was used for testing the EYFP and GFP channel. Automated alignment using Automatic Setup Beads kit (SONY no. LE-B3001) is performed before running samples. In FIGS. 3A, 3B, and 17, experiments were performed under 2% FSC, 17% BSC, 24% FL1. In FIG. 18, experiments were performed under 2% FSC, 17% BSC, 27% FL1. All the other experiments were performed under 2% FSC, 17% BSC, 24% FL1 and 27% FL6. Flow cytometry data was processed and analyzed by FlowJo 10. Events were first gated with forward scatter-Area (FSC-A) and side scatter-Area (SSC-A) to select viable cells and remove the debris and dead cells. Cells were further gated with FSC-A and FSC-Height (FSC-H) for selecting single cells. The mean intensity of the reporter fluorescent protein (BFP and EYFP) in viable and single cell populations were calculated by FlowJo 10 as the mean of FL6-A and FL1-A. When calculating the fold change of relative fluorescence units (RFU), the relative fluorescence units of EYFP was calculated by dividing the mean of fluorescence intensity of EYFP with the mean of BFP fluorescence intensity for normalization as the following formula: […]
Next, the mean of the normalized relative fluorescence units of induced group were divided by the value of control group for calculating the fold change as the following formula: […]
Transfection and microscopy. HEK293T cells (American Type Culture Collection, no. CRL-3216) were cultured with high-glucose Dulbecco's modified Eagle's medium (DMEM) (Thermo Fisher Scientific no. 10569044) with 10% fetal bovine serum (FBS) (Thermo Fisher Scientific no. 10437028) and 1×penicillin-streptomycin (Thermo Fisher Scientific no. 15140122) at 37° C. with 5% CO2. Except for the data in FIGS. 3C, 3E, and 3H, cells were plated into 96 well plate (Corning no. 3598) and transfected by Polyethyleneimine Max (PEI Max) (Polysciences no. 24765-1). 1.5 μL PEI Max (1 mg/mL, pH=7.1) and 100 μl DMEM were mixed with plasmids to be slowly dropped into the cell medium after 30 mins of incubation. Medium was changed 12 hours post-transfection. The inductive small molecules, including Rapamycin (STEM CELL technologies no. 73362), dTAG-13 (TOCRIS no. 6605/5), dTAG^V-1 (TOCRIS no. 6744-5), dBRD9 (TOCRIS no. 6606/5), dTRIM24 (TOCRIS no. 6607/5), MZ1 (TOCRIS no. 6154/5), AT1 (TOCRIS no. 6356/5), TL13-12 (TOCRIS no. 6744/5), TL13-112 (TOCRIS no. 6745/5), dTAG-7 (TOCRIS no. 69125), ZXH3-26 (TOCRIS no. 6713/5) and ABA (GoldBio no. A-050-100), dissolved in Dimethyl sulfoxide (DMSO) (Sigma, no. D8418) were added. For the microscopy observation, the images were taken by Microscopy EVOS (Life Technologies) and processed by ImageJ (Schneider et al., 2012). If not otherwise noted, 60 ng of each plasmid were used for each sample.
Step-by-step fluorescence protein activation assay protocol. Reagents: • 1. PEI Max (Polysciences no. 24765-1) • 2. DMEM, high glucose, GlutaMAX™ Supplement, pyruvate (Thermo Fisher Scientific no. 10569044) • 3. Penicillin-Streptomycin (10,000 U/mL) (Thermo Fisher Scientific no. 15140122) • 4. Fetal Bovine Serum 500ML (FBS) (Thermo Fisher Scientific no. 10437028) • 5. TrypLE™ Express Enzyme (1×), phenol red (Thermo Fisher Scientific no. 12605068) • 6. PBS pH=7.4 (Thermo Fisher Scientific no. 10010023) • 7. Sony sorting chip […] for MA900 (SONY no. LE-C3210) • 8. Automatic Setup Beads kit (SONY no. LE-B3001) • 9. […]

[2] = test system: pUAS-2-Fluc expression in HEK293T cells with cognate or non-cognate GAL4/VPR protein pairs; assay: Orthogonality analysis, Firefly luciferase (Fluc) luminescence; format: cell-based, human; settings: seven different protein pairs, 2 days, FIGS. 2A and 14
Procedure: Luciferase luminescence intensity measurement. Before transfection, HEK293T cells were seeded in clear bottom 96 well assay plates (Corning no. 3610) with 100 μL DMEM with 10% FBS and 1× penicillin-streptomycin at 37° C. with 5% CO2. When cells reached 50% confluency, 1.5 μL PEI Max (1 mg/mL, pH=7.1) and 100 μL DMEM were mixed with 60 ng of each plasmid (GAL4 and VPR fused target protein or E3 ubiquitin ligase, pUAS-2-Fluc) for 30 min at room temperature. Mixture was transferred into cells gently. 12 h after transfection, medium was changed, and the inductive small molecules were supplied. 2-days post induction, 120 μL of medium was aspirated from each well containing 200 μL of medium, leaving 80 μL of medium per well, then treated with 40 μL of lysis buffer (500 mM DTT (Sigma no. D0632), 10 mM coenzyme A (RPI no. C95275), 100 mM ATP (Thermo Fisher Scientific no. R1441), 80 mg/mL D-luciferin (GoldBio no. LUCNA-100), Triton lysis buffer (0.1082 M Tris-HCl, 0.0419 M Tris-Base, 75 mM NaCl, 3 mM MgCl2)). Plate was shaken with 20 seconds in “Orbital” mode with frequency of 432 rpm and Amplitude of 1 mm to lysis the cells. Recording the luminescence by plate reader Infinite M200 (TECAN) with 1000 ms integration time using Megellan v1.7 (TECAN). Mean of luciferase luminescence relative light units (RLU) was calculated by the average of three biological replications. Normalized RLU were calculated by dividing RLU of the tested group with mean of RLU of DMSO treated control group for normalization: […]

[3] = Table 4 nonlinear regression, Prism 9 [Agonist] vs. response variable slope (four parameters), no unit in table (the source gives nM), read-out: EC50 (best-fit value)
[4] = dose-response, read-out: EC50 for gene activation

Compound | grades of EYFP intensity ([1]; HEK293T transfected with GAL4-VHL, TRIM24^BD-VPR, BRD4^BD2-VPR and reporter plasmid, FIG. 2E: dTRIM24, MZ1 100 nM) [fold] | Bottom (best-fit value) [1] | Span (best-fit value) [1] | Top (best-fit value) [1] | Hillslope (best-fit value) ([1]; Table 4 nonlinear regression) | logEC50 (best-fit value) ([1]; Table 4 nonlinear regression) | EC50 [1, 3] [nM] | EC50 [1, 4] [nM] | orthogonality: Fluc activation with cognate vs non-cognate protein partners [2]
Cc1ncsc1-c1ccc(CNC(=O)[C@@H]2C[C@@H](O)CN2C(=O)[C@@H](NC(=O)COCCOCCOCCNC(=O)C[C@@H]2N=C(c3ccc(Cl)cc3)c3c(sc(C)c3C)-n3c(C)nnc32)C(C)(C)C)cc1 [MZ1] | 13 | 1.416 | 319.6 | 321 | 1.728 | 1.51 | 32.4 | 32 | interact with the same protein pairs
CC[C@H](C(=O)N1CCCC[C@H]1C(=O)O[C@H](CCc1ccc(OC)c(OC)c1)c1ccccc1OCC(=O)NCCCCCCOc1cccc2c1C(=O)N(C1CCC(=O)NC1=O)C2=O)c1cc(OC)c(OC)c(OC)c1 (some centres unmarked) [dTAG-13] |  | 2.581 | 135.7 | 138.3 | 3.384 | 1.724 | 53 | 53 | only activated Fluc expression in the cells transfected with plasmids containing GAL4-FKBP12^F36V (SEQ ID NO: 1) and CRBN-VPR (SEQ ID NO: 2) coding regions
